pEC50, pIC50: −log10 of the molar value. Values after ≈ are worked out from the molar mass of the structure shown.
Assays:
[1] = Microsomal stability in rat liver microsomes assessed as intrinsic clearance preincubated for 5 mins followed by NADPH addition measured upto 60 mins by LC-MS/MS analysis; type: ADME, Microsome; settings: time < 65 min, read-out: CLH
[2] = AUC last in CD-1 mouse at 3 mg/kg, po measured for 0.5 to 24 hrs by LC-MS/MS analysis; type: ADME, organism-based; parameters: time upper 24 hrs, time lower 0.5 hrs, dose 3 mg/kg, route po; settings: in vivo
[3] = Volume of distribution at steady state in Sprague-Dawley rat at 2.5 mg/kg, iv measured upto 24 hrs by LC-MS/MS analysis; type: ADME, organism-based; settings: in vivo, read-out: Vdss
[4] = AUC last in Sprague-Dawley rat at 10 mg/kg, po measured upto 24 to 48 hrs by LC-MS/MS analysis; type: ADME, organism-based; parameters: time upper 48 hrs, dose 10 mg/kg, time lower 24 hrs, route po; settings: in vivo
[5] = Oral bioavailability in CD-1 mouse at 30 mg/kg measured for 0.5 to 24 hrs by LC-MS/MS analysis; type: ADME, organism-based; settings: in vivo, time 0.5-24 hrs
[6] = Volume of distribution at steady state in CD-1 mouse at 2.5 mg/kg, iv measured for 0.12 to 24 hrs by LC-MS/MS analysis; type: ADME, organism-based; settings: in vivo, time 0.12-24 hrs, read-out: Vdss
[7] = Half life in CD-1 mouse at 2.5 mg/kg, iv measured by LC-MS/MS analysis; type: ADME, organism-based; settings: in vivo
[8] = target: Voltage-gated inwardly rectifying potassium channel KCNH2 (Homo sapiens, UniProt Q12809); test: Displacement of [3H]Dofetilide from human ERG; type: toxicity
[9] = Cmax in CD-1 mouse at 3 mg/kg, po measured for 0.5 to 24 hrs by LC-MS/MS analysis; type: ADME, organism-based; parameters: time 0.5-24 hrs, dose 3 mg/kg, route po; settings: in vivo
dengue virus type 4 = test: Antiviral activity against DENV-4 H241 infected in african green monkey Vero cells incubated for 24 hrs measured after 3 days post infection; type: functional, organism-based
[10] = Microsomal stability in mouse liver microsomes assessed as intrinsic clearance preincubated for 5 mins followed by NADPH addition measured upto 60 mins by LC-MS/MS analysis; type: ADME, Microsome; settings: time < 65 min, read-out: CLH
[11] = AUC last in CD-1 mouse at 30 mg/kg, po measured for 0.5 to 24 hrs by LC-MS/MS analysis; type: ADME, organism-based; parameters: time upper 24 hrs, time lower 0.5 hrs, dose 30 mg/kg, route po; settings: in vivo
dengue virus type 3 = test: Antiviral activity against DENV-3 H87 infected in african green monkey Vero cells incubated for 24 hrs measured after 3 days post infection; type: functional, organism-based
[12] = Oral bioavailability in CD-1 mouse at 3 mg/kg measured for 0.5 to 24 hrs by LC-MS/MS analysis; type: ADME, organism-based; settings: in vivo, time 0.5-24 hrs
[13] = Cmax in CD-1 mouse at 30 mg/kg, po measured for 0.5 to 24 hrs by LC-MS/MS analysis; type: ADME, organism-based; parameters: time upper 24 hrs, dose 30 mg/kg, time lower 0.5 hrs, route po; settings: in vivo
[14] = Cmax in Sprague-Dawley rat at 10 mg/kg, po measured upto 24 to 48 hrs by LC-MS/MS analysis; type: ADME, organism-based; parameters: time upper 48 hrs, dose 10 mg/kg, time lower 24 hrs, route po; settings: in vivo
[15] = Oral bioavailability in Sprague-Dawley rat at 10 mg/kg measured upto 24 to 48 hrs by LC-MS/MS analysis; type: ADME, organism-based; settings: in vivo, time 24-48 hrs
[16] = Microsomal stability in human liver microsomes assessed as intrinsic clearance preincubated for 5 mins followed by NADPH addition measured upto 60 mins by LC-MS/MS analysis; type: ADME, Microsome; settings: time < 65 min, read-out: CLH
dengue virus type 2 [17] = test: In vivo antiviral activity against DENV-2/RL infected in AG129 mouse assessed as viral load reduction in plasma administered at 30 mg/kg, po bid for 3 days; type: functional; settings: time 3 day
[18] = Kinetic solubility of the compound in aqueous buffer at pH 7.4 measured after 4 hrs by UPLC/UV analysis; type: physicochemical; settings: read-out: Kinetic_solubility
dengue virus type 1 = test: Antiviral activity against DENV-1 TC974#666 infected in african green monkey Vero cells incubated for 24 hrs measured after 3 days post infection; type: functional, organism-based; settings: TC974#666, Vero
[19] = Clearance in Sprague-Dawley rat at 2.5 mg/kg, iv measured upto 24 hrs by LC-MS/MS analysis; type: ADME, organism-based; settings: in vivo
[20] = AUC last in CD-1 mouse at 10 mg/kg, po measured for 0.5 to 24 hrs by LC-MS/MS analysis; type: ADME, organism-based; parameters: dose 10 mg/kg, time 0.5-24 hrs, route po; settings: in vivo
[21] = Clearance in CD-1 mouse at 2.5 mg/kg, iv measured for 0.12 to 24 hrs by LC-MS/MS analysis; type: ADME, organism-based; settings: in vivo, time 0.12-24 hrs
[22] = Metabolic stability in human hepatocytes assessed as intrinsic clearance measured per million cells incubated upto 120 mins by MS analysis; type: ADME, cell-based, Hepatocyte; settings: read-out: CLH
[23] = Half life in Sprague-Dawley rat at 2.5 mg/kg, iv measured by LC-MS/MS analysis; type: ADME, organism-based; settings: in vivo
[24] = Cmax in CD-1 mouse at 10 mg/kg, po measured for 0.5 to 24 hrs by LC-MS/MS analysis; type: ADME, organism-based; parameters: dose 10 mg/kg, time 0.5-24 hrs, route po; settings: in vivo
[25] = Oral bioavailability in CD-1 mouse at 10 mg/kg measured for 0.5 to 24 hrs by LC-MS/MS analysis; type: ADME, organism-based; settings: in vivo, time 0.5-24 hrs
[26] = AUC last in CD-1 mouse at 1 mg/kg, po measured for 0.5 to 24 hrs by LC-MS/MS analysis; type: ADME, organism-based; parameters: dose 1 mg/kg, time 0.5-24 hrs, route po; settings: in vivo
[27] = Cmax in CD-1 mouse at 1 mg/kg, po measured for 0.5 to 24 hrs by LC-MS/MS analysis; type: ADME, organism-based; parameters: dose 1 mg/kg, time 0.5-24 hrs, route po; settings: in vivo
dengue virus type 2 [28] = test: Antiviral activity against DENV-2 16681 infected in african green monkey Vero cells incubated for 24 hrs measured after 3 days post infection; type: functional, organism-based; settings: Dengue virus, 16681, Vero
[29] = Oral bioavailability in CD-1 mouse at 1 mg/kg measured for 0.5 to 24 hrs by LC-MS/MS analysis; type: ADME, organism-based; settings: in vivo, time 0.5-24 hrs
dengue virus type 2 [30] = test: In vivo antiviral activity against DENV-2/RL infected in AG129 mouse assessed as viral load reduction administered at 1 to 30 mg/kg, po bid for 3 days; type: functional, organism-based; settings: dose 1-30 mg/kg, time 3.0 day

Voltage-gated inwardly rectifying potassium channel KCNH2, sequence (Q12809 whole entry): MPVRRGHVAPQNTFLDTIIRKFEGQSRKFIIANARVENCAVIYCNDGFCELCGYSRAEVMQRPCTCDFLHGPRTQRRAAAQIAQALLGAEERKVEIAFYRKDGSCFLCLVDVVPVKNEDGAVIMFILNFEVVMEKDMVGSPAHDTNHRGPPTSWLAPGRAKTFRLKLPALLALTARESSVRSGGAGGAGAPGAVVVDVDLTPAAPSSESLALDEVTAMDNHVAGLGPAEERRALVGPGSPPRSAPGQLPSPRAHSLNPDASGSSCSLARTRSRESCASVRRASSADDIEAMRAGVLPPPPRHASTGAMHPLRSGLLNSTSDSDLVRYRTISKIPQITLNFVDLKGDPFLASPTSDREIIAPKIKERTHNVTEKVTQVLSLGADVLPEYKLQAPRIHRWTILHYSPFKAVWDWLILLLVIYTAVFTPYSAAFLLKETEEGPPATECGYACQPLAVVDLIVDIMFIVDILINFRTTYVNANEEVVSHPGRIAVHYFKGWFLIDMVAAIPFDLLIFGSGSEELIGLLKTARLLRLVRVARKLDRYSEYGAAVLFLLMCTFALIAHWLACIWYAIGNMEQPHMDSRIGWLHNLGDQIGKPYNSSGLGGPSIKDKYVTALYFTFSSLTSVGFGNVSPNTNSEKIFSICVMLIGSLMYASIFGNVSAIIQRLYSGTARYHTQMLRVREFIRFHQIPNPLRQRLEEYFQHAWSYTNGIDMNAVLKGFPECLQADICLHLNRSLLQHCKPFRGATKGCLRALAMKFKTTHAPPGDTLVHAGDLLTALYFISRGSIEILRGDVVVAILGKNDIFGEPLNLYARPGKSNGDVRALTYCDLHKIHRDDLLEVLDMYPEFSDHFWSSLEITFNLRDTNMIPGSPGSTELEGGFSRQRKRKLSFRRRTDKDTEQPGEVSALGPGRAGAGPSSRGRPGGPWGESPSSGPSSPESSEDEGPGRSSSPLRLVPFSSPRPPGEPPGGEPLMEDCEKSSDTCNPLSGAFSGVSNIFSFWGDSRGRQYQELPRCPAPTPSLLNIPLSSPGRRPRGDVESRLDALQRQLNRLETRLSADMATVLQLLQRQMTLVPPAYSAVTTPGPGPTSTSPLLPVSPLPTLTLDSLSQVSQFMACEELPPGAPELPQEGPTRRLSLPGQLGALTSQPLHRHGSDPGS

Row | microsomal CLint [1] [µL/min/mg] | AUC(0-t) [2] [ng·h/mL] | Vd [3] [L/kg] | AUC(0-t) [4] [ng·h/mL] | Vd [6] [L/kg] | half-life [7] [h] | Cmax [9] [ng/mL] | microsomal CLint [10] [µL/min/mg] | pEC50 (dengue virus type 3) | bioavailability [12] [%] | Cmax [14] [ng/mL] | bioavailability [15] [%] | microsomal CLint [16] [µL/min/mg] | solubility kinetic at 4 h [18] [µM] | pEC50 (dengue virus type 1) | clearance [19] [mL/min/kg] | AUC(0-t) [20] [ng·h/mL] | clearance [21] [mL/min/kg] | Structure (SMILES) | pIC50 [8] | Activity (dengue virus type 2 [17]) [log10/ml] | further results
1 | 9 | 1410 | 10.1 | 2430 | 2 | 2 | 435 | 32 | 7.20 | 40 | 192 | 69 | < 8 | 1 (≈ 0.499 µg/mL) | 8.10 | 46.2 | 6030 | 16.6 | COc1cc(NC(C(=O)c2c[nH]c3cc(F)ccc23)c2ccc(Cl)cc2OC)cc(OCCO)c1 (single isomer, unassigned; (+)) | 5.00 | 2 | bioavailability [5]: 85%; pEC50 (dengue virus type 4; vero): 6.62; AUC(0-t) [11]: 29500 ng·h/mL; Cmax [13]: 5100 ng/mL; hepatocyte CLint [22]: < 1.9 µL/min/1e6 cells; half-life [23]: 6.4 h; Cmax [24]: 1720 ng/mL; bioavailability [25]: 52%
2 | < 8 | 4050 | 6.8 | 8390 | 3.3 | 6.2 | 345 | < 8 | 7.59 | 54 | 365 | 45 | < 8 | 0.2 (≈ 0.105 µg/mL) | 8.40 | 6.8 | 19100 | 6.3 | COc1cc(NC(C(=O)c2c[nH]c3cc(OC)c(C)cc23)c2ccc(Cl)cc2OC)cc(OCCO)c1 (single isomer, unassigned; (+)) | < 5.00 | 2.9 | AUC(0-t) [26]: 872 ng·h/mL; Cmax [27]: 83 ng/mL; pEC50 (dengue virus type 2 [28]): 9.00; pEC50 (dengue virus type 4; Dengue virus, H241, Vero): 7.08; hepatocyte CLint [22]: < 1.9 µL/min/1e6 cells; bioavailability [29]: 35%; half-life [23]: 11.5 h; Cmax [24]: 1760 ng/mL; Activity (dengue virus type 2 [30]): Dose-Dependent Effect; bioavailability [25]: 76%
